# Laboratory results as given in patent US8815935B2, “Inhibitors of protein prenyltransferases” (The Regents of the University of California, priority 2008, dated 2014).
# Entries after “also recorded” stand apart in the source; their conditions may differ.
# How the values were obtained:
# CFpac-1 = CFpac-1 cell growth inhibition; format: cell-based, human; conditions: Homo sapiens, CFPAC-1, 72 h; 3 days, CCK-8, vs DMSO; read-out: IC50, CFpac-1 (Pancreas)
# Procedure: (§1) In FIG. 9-24 in vitro IC50 values for the GGTase I activity are reported. In Tables 7-15 in cell GI50 values for the growth inhibition of a variety of cancer cell lines (e.g., Jurkat, K562, MDA-MB-231, BT474, MCF7, MiaPaCa2, Aspc-1, Panc-1, Capan-2, CFpac-1, and MCF10a) are reported.
# (§2) Cell viability was determined by Cell Counting Kit-8 (CCK-8, Dojindo, Kumamoto, Japan) as described previously (31). Cell viability was calculated relative to the DMSO control. Cell cycle profile was analyzed by flow cytometry as described previously (32).
# MiaPaCa2 = experiment: Cell cycle distribution by flow cytometry, MiaPaCa2; format: cell-based, human; conditions: 10 μM, 48 hours
# Procedure: as §2
# Panc-1 = experiment: Cell cycle distribution by flow cytometry, PANC-1; format: cell-based, human; conditions: 10 μM, 48 hours
# Procedure: as §2
# Aspc-1 = Aspc-1 cell growth inhibition; format: cell-based, human; conditions: Homo sapiens, ASPC1, 144 h; 6 days, CCK-8, vs DMSO; read-out: IC50, AsPc-1 (Pancreas)
# Procedure: as §1, §2
# [1] = tested on: Rap1 geranylgeranylation in NIH3T3 cells; experiment: Unprenylated Rap1 immunoblot in NIH3T3 cells; format: cell-based; conditions: 48 hours
# Procedure: The inhibition of GGTase-I catalyzed protein geranylgeranylation was assessed by examining the accumulation of unprenylated Rap1. To measure the level of unprenylated Rap1, cells were cultured in DMEM plus 10% (v/v) FBS overnight, and then DMSO or appropriate inhibitors were added. Incubation was continued for 48 hours. The cells were harvested and lysed in lysis buffer (20 mM Tris-HCl, pH 7.5, 150 mM NaCl, 1 mM EDTA, 1% NP-40 and 1× Protease Inhibitor Cocktail). Whole cell lysates of NIH3T3 cells were electrophoresed on a 12% SDS-PAGE, transferred to nitrocellulose membranes and immunoblotted with the antibody against unprenylated form of Rap1 (Santa Cruz Biotechnology catalog number sc-1482, goat), total-Rap1 (Santa Cruz: sc-65) or actin (Sigma: A4700). Actin was used as a loading control.
# MCF-7 cells = experiment: Cell cycle profile by flow cytometry, MCF-7; format: cell-based, human; conditions: 48 hours, FIG. 37B
# Procedure: MCF-7 cells were treated with P61-A6, P61-B6 or DMSO for 72 hours. Cell viability relative to the DMSO control (100% value) is plotted. (B) MCF-7 cells were treated with indicated concentrations (μM) of P61-A6, P61-B6 or DMSO for 48 hours. Cell cycle profiles were monitored by flow cytometry. Percentages of cells in each phase of the cell cycle are indicated by different shades. (C) NIH3T3 cells were transfected with p21^CIP1/WAF1-luciferase or empty vector. Cells were treated with P61-A6 or P61-B6 compound at indicated concentrations or with DMSO for 48 hours and luciferase assay was performed. Data represent the mean+/−S.D. of two measurements from two independent experiments. *, P<0.05; **, P<0.005 compared with the value for DMSO.
# as §2
# [2] = tested on: Rab5b geranylgeranylation in NIH3T3 cells; experiment: Rab5b immunoblot and subcellular fractionation in NIH3T3 cells; format: cell-based; conditions: 48 hours
# Procedure: The inhibition of Rab geranylgeranylation in cells (FIG. 43) was examined according to (29). Briefly, whole cell lysates were subjected to 15% SDS-PAGE containing 4M urea followed by immunoblotting with the antibody against Rab5b (Santa Cruz: sc-598) or actin. Subcellular fractionations (FIG. 44) were performed as described by Gomes et al. (30). Briefly, cells were treated with P49-F6 for 48 hours. After osmotic lysis, cell debris were removed by centrifugation at 500×g for 10 min, and the supernatant was subjected to ultracentrifugation at 100,000×g for 60 min. The supernatant of ultracentrifugation was collected as a soluble fraction. The pellet was collected as a membrane fraction. These fractions were subjected to electrophoresis on 10% SDS-PAGE gels followed by immunoblotting with the antibody against Rab5b. RhoGDI (Santa Cruz: sc-360) and Na^+/K^+ ATPase (Sigma: A276) were used as markers for soluble and membrane fractions, respectively.
# MDA-MB-231 = experiment: Cell cycle distribution by flow cytometry, MDA-MB-231; format: cell-based, human; conditions: 10 μM, 48 hours
# Procedure: as §2
# SE-Mk2 = SE-Mk2 cell growth inhibition; format: cell-based; conditions: Homo sapiens, SEMK2, 144 h; 6 days, CCK-8, vs DMSO; read-out: IC50, SE-Mk2 (Blood)
# Procedure: as §2
smiles,measurement,setting,value
Cc1ccccc1S(=O)(=O)N1C(c2ccc(Cl)cc2)C(C(=O)NC(Cc2ccccc2)C(N)=O)=CC1C(C)(C)C (stereo not shown) [P61-A6],IC50,CFpac-1,6.3 µM
same,"Percent G2/M, MiaPaCa2",MiaPaCa2; DMSO 14.12,10.81%
same,"Percent G0/G1, MiaPaCa2",MiaPaCa2; DMSO 77.85,87.98%
same,"Percent G2/M, PANC-1",Panc-1; DMSO 24.21,19.81%
same,"Percent G0/G1, PANC-1",Panc-1; DMSO 42.08,54.13%
same,IC50,Aspc-1,11.7 µM
same,appearance of the unprenylated (unprocessed) Rap1 band,[1],in a dose dependent manner; also recorded: inhibits Rap1 geranylgeranylation
same,appearance of the unprenylated Rap1 band at 2.5 μM,[1]; 2.5 μM,observed
same,cell cycle effect in MCF-7,MCF-7 cells,dose-dependent enrichment of G1 phase cells
same,inhibition of Rab5b geranylgeranylation (slow migrating unmodified Rab5b band),[2],did not inhibit geranylgeranylation of Rab5b
same,"Percent G2/M, MDA-MB-231",MDA-MB-231; DMSO 7.74,5.15%
same,"Percent G0/G1, MDA-MB-231",MDA-MB-231; DMSO 73.78,85.16%
same,IC50,SE-Mk2,6.4 µM
